Assay results from EPA's ToxValDB 9.5.

Key:
Rattus norvegicus [1] = conditions: oral
Rattus norvegicus [2] = conditions: oral; for NOAEL: M/F
Rattus norvegicus [3] = conditions: repeat dose other; oral
Rattus norvegicus [4] = conditions: oral, gavage
Rattus norvegicus [5] = tested on: Rattus norvegicus
Rattus norvegicus [6] = tested on: Rattus norvegicus; remark: listed apart in the source
Rattus norvegicus [7] = conditions: duration: 2 years, oral
[8] = subchronic, M/F, lesions in liver, kidney and thyroid
[9] = short-term, duration: 28 days, M, Sprague-Dawley, Clinical Observation: Spontaneous locomotion decrease, Respiratory rate decrease, Incomplete eyelid opening SalivationLacrimation Stool …
[10] = subchronic, M, increased liver-to-body weight ratio and hepatic microsomal enzyme induction
[11] = subchronic, M/F, hypoactivity and ataxia
[12] = subchronic, M/F, increased liver weight and centrilobular hypertrophy
[13] = reproduction developmental, M/F, reduced mean body weight
[14] = short-term, duration: 28 days, M, Sprague-Dawley, Clinical Observation: Locomotor activity decrease, Salivation + Functional Observational Battery: Locomotor activity decrease, Salivation + …
[15] = chronic, duration: 2 years, diet, M/F, increased kidney body weight ratio

## CC(Cl)C(Cl)Cl (stereo unspecified) [1,1,2-Trichloropropane]
Rattus norvegicus [1]; [8]
  LOAEL: 150 mg/kg-day
  NOEL: 15 mg/kg-day
Rattus norvegicus [2]; subchronic, duration: 90 days, drinking water, Sprague-Dawley, Hepatic, Other
  NOAEL: 14 mg/kg-day

## Clc1cc2oc3cc(Cl)c(Cl)c(Cl)c3c2cc1Cl [1,2,3,7,8-Pentachlorodibenzofuran]
Rattus norvegicus [3]
  LOAEL: 0.0016 mg/kg-day
  NOAEL: 0.00016 mg/kg-day

## ClCC(Cl)CCl [1,2,3-Trichloropropane]
Rattus norvegicus [4]; chronic, duration: 17 weeks, M/F, Fischer 344, Deaths + Body Weight Changes: decrease + Hematology: Hct decrease, RBC decrease, Hgb decrease + Blood Chemistry: Na decrease, Alb increase, …
  NOEL: < 8 mg/kg-day
Rattus norvegicus [4]; [9]
  NOAEL: < 15 mg/kg-day
  NOEL: < 15 mg/kg-day
Rattus norvegicus [5]; chronic, duration: 120 days, oral, Blood: Decreased hematocrit + Blood: Decreased hemoglobin + Erythrocytes: Decreased count + Kidney: Lesions + Liver: Lesions + Whole body: …
  NOAEL: 8 mg/kg-day
Rattus norvegicus [6]; short-term, duration: 11 days, inhalation, M/F, Fischer 344, respiratory
  NOAEL: 6.03 mg/m3

## Brc1ccc(Br)c(Br)c1 [1,2,4-Tribromobenzene]
Rattus norvegicus [1]; [10]
  LOAEL: 10 mg/kg-day
  NOAEL: 5 mg/kg-day
Rattus norvegicus [5]; subchronic, duration: 45 days, oral, diet, Liver: Altered weight + Liver: Enzyme induction
  NOAEL: 5 mg/kg-day

## C1=CCC=C1 [1,3-Cyclopentadiene]
Rattus norvegicus [5]; chronic, duration: 194 days, inhalation, intermittent, Kidney: Lesions + Liver: Lesions
  NOEL: 87.3 mg/kg-day

## CCCCO [1-Butanol]
Rattus norvegicus [1]; [11]
  LOAEL: 500 mg/kg-day
  NOAEL: 125 mg/kg-day
Rattus norvegicus [5]; subchronic, duration: 13 weeks, oral, gavage, Central nervous system: Ataxia + Central nervous system: Hypoactivity
  NOAEL: 125 mg/kg-day

## Oc1c(Cl)cc(Cl)c(Cl)c1Cl [2,3,4,6-Tetrachlorophenol]
Rattus norvegicus [1]; [12]
  LOAEL: 100 mg/kg-day
  NOAEL: 25 mg/kg-day
Rattus norvegicus [5]; subchronic, duration: 90 days, oral, gavage, Liver: Centrilobular hypertrophy + Liver: Increased weight
  NOAEL: 25 mg/kg-day

## Cc1ccc(N)c(C)c1 [2,4-Dimethylaniline]
Rattus norvegicus [2]; chronic, duration: 6 months, diet, M, Osborne-Mendel
  LOAEL: 18 mg/kg-day

## N#CSCSc1nc2ccccc2s1 [2-(Thiocyanomethylthio)benzothiazole]
Rattus norvegicus [5]; subchronic, oral, diet, Stomach: Lesions
  NOEL: 25 mg/kg-day

## Nc1cccc(O)c1 [3-Aminophenol]
Rattus norvegicus [2]; short-term, duration: 18 days, gavage, Sprague-Dawley, Whole Body Effects
  NOAEL: 80 mg/kg-day
Rattus norvegicus [4]; short-term, duration: 28 days, M/F, Sprague-Dawley, Clinical Observation: Tremor Salivation + Body Weight Changes: decrease + Food Consumption: decrease + Water Consumption: increase + …
  NOAEL: 240 mg/kg-day

## O=C=Nc1ccc(Cc2ccc(N=C=O)cc2)cc1 [4,4'-Diphenylmethane diisocyanate]
Rattus norvegicus [5]; chronic, duration: 24 months, inhalation, intermittent, Nasal cavity: Lesions
  NOAEL: 0.2 mg/m3

## O=S(=O)(O)c1ccc(Cl)cc1 [4-Chlorobenzenesulphonic acid]
Rattus norvegicus [2]; subchronic, duration: 32 days, gavage, S-D
  NOAEL: 1800 mg/kg-day

## COc1cc2c(c3oc(=O)c4c(c13)CCC4=O)[C@]1(O)C=CO[C@@H]1O2 [Aflatoxin M1]
Rattus norvegicus [7]; chronic, diet, M, Fischer 344, Carcinogenicity
  NOEL: 0.1 mg

## [O]=[Sb][O][Sb](=[O])=[O] [Antimony oxide (Sb2O4)]
Rattus norvegicus [5]; chronic, oral, drinking water, Blood: Altered chemistries + Whole body: Increased mortality
  LOAEL: 0.44 mg/kg-day

## FB(F)F [Boron trifluoride]
Rattus norvegicus [5]; subchronic, duration: 13 weeks, inhalation, intermittent, Kidney: Necrosis
  NOAEL: 6 mg/m3

## O=C1C2CC=CCC2C(=O)N1SC(Cl)(Cl)Cl (stereo unspecified) [Captan]
Rattus norvegicus [1]; [13]
  LEL: 25 mg/kg-day
  NOEL: 12.5 mg/kg-day
Rattus norvegicus [5]; subchronic, oral, diet, Whole body: Decreased weight
  NOEL: 12.5 mg/kg-day

## ClC(Cl)(Cl)Cl [Carbon tetrachloride]
Rattus norvegicus [3]
  NOAEL: 16 mg/kg-day
Rattus norvegicus [4]; [14]
  NOAEL: < 20 mg/kg-day
  NOEL: < 20 mg/kg-day
Rattus norvegicus [6]; chronic, duration: 104 weeks, inhalation, whole body, M/F, Fischer 344, hepatic
  NOAEL: 31.5 mg/m3
Rattus norvegicus [6]; chronic, duration: 205 days, inhalation, M/F, Wistar, hepatic
  NOAEL: 31.5 mg/m3
Rattus norvegicus [6]; short-term, duration: 10 days, oral, gavage, M, Fischer 344, hepatic
  LOAEL: 5 mg/kg-day
Rattus norvegicus [6]; subchronic, duration: 12 weeks, oral, gavage, M, Sprague-Dawley, hepatic
  NOAEL: 1 mg/kg-day

## Cc1cc(C(C#N)c2ccc(Cl)cc2)c(Cl)cc1NC(=O)c1cc(I)cc(I)c1O (stereo unspecified) [Closantel]
Rattus norvegicus [7]; chronic, diet, M/F, Wistar, Increased incidences of sperm granulomas in the epididymes of male rats
  NOEL: 2.5 mg/kg-day
Rattus norvegicus [7]; dietary / carcinogenicity, feed, M/F, Wistar, Increased incidences of sperm granulomas in the epididymes of male rats
  NOEL: 2.5 mg/kg-day

## NC1CCCCC1 [Cyclohexylamine]
Rattus norvegicus [1]; chronic, M, testicular damage
  LOAEL: 60 mg/kg-day
  NOAEL: 18 mg/kg-day
Rattus norvegicus [5]; subchronic, duration: 90 days, oral, diet, Testis: Decreased weight + Whole body: Decreased weight gain
  NOAEL: 30 mg/kg-day

## CC(Cl)(Cl)C(=O)O [Dalapon]
Rattus norvegicus [1]; [15]
  LEL: 28.2 mg/kg-day
  NOEL: 8.45 mg/kg-day
Rattus norvegicus [5]; chronic, duration: 2 years, oral, diet, Kidney: Increased relative weight
  NOEL: 8.45 mg/kg-day

## CCOP(=S)(OCC)Oc1cc(C)nc(C(C)C)n1 [Diazinon]
Rattus norvegicus [5]; subchronic, duration: 42 days, oral, diet, Blood: Decreased cholinesterase activity
  NOAEL: 0.09 mg/kg-day
Rattus norvegicus [6]; chronic, duration: 98 weeks, oral, diet, M/F, Sprague-Dawley, neurological
  NOAEL: 0.065 mg/kg-day
Rattus norvegicus [6]; chronic, duration: 92 days, oral, diet, F, Wistar, neurological
  NOAEL: 0.6 mg/kg-day
Rattus norvegicus [6]; short-term, duration: 3 weeks, inhalation, nose only, M/F, albino, neurological
  NOAEL: 1.57 mg/m3
